The source of these data is BindingDB's records for doi:10.1021/jm00163a043 (Michigan Cancer Foundation, 1990).

The target of experiment [1] is thymidine kinase (Oryctolagus cuniculus). Description: Inhibitory affect against rabbit thymus thymidine kinase.
Experiment [2] has the same target. The experiment is described as above. The source holds these as a separate data set.

The Ki is a dissociation constant, usually derived from enzyme kinetics or from competition with a known ligand. Read a low Ki as tighter binding. Regarding `Cc1cn([C@H]2CC[C@@H](CO)O2)c(=O)[nH]c1=S`, affinity in experiment [1] was put at a Ki of 1.6 mM.
In the case of `O=c1[nH]c(=S)ccn1[C@H]1C=C[C@@H](CO)O1`, the Ki in experiment [2] stood at 1.69 mM.
As for `Cc1cn([C@H]2C=C[C@@H](CO)O2)c(=O)[nH]c1=S`, the Ki in experiment [1] was 1.69 mM.
The same measure, in the same setting: the value for `Cc1cn([C@H]2C[C@H](N=[N+]=[N-])[C@@H](CO)O2)c(=O)[nH]c1=S` was 0.054 mM.
In the case of `O=c1ccn([C@H]2C=C[C@@H](CO)O2)c(=O)[nH]1`, in experiment [2], the Ki turned out to be 0.445 mM.
For the compound `O=c1[nH]c(=S)ccn1[C@H]1CC[C@@H](CO)O1`, the Ki in experiment [2] turned out to be 1.27 mM.
